system: Caenorhabditis elegans; assay: C. elegans L1 nematicidal dose response in 96-well plates, 5 day visual score (Example 2; same procedure for Example 7, Table 3); format: in vivo; design: key to 5 Day Visual Score V1 / 5 Day Visual Score V2 / 5 Day Visual Score V3 / 5 Day Visual Score V4 / 5 Day Visual Score V6 / 5 Day Visual Score V5 / Initial HTS Run Visual Score / Follow-up HTS Run Visual Score: Dead: only stiff L1s (no movement); Dead (L4): worms are dead, but at a later larval stage; majority of worms are L1 (based on size) worms move when plate is tapped; majority of worms are L2 (based on size); majority of worms are L3 (based on size); majority of worms are L4 (based on size); AD: majority of worms are adult; #AD: 5 adult worms or less; B!: sterile (0-25 progeny); B: low broodsize (25-100 progeny); ˜B: moderate broodsize (100-250 progeny); <: reduced broodsize (250-500 progeny); OK: no effect (˜1000+ progeny); settings: Follow-up HTS run
How it was run: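 L1 larvae, 20 per well in NGM with 1% E. coli HB101 and antibiotic/antimycotic, exposed to six 3-fold dilutions from 70 μM down to 0.3 μM (1.4% DMSO at top). Held at 20° C; viability scored visually under 100× dissecting microscope on day 5.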

Compound | Follow-up HTS Run % Run [%] | Follow-up HTS Run mOD [mOD] | Follow-up HTS Run Visual Score
COc1ccc(CNc2nsc(N3CCN(c4ccc(F)cc4)CC3)n2)cc1 [compound 271] | 109 | 175 | –
C=CCN(CC=C)c1nc(NCC(c2ccccc2)c2ccccc2)ns1 [compound 272] | 110 | 177 | –
CCCCCCCCCCNc1nsc(N2CCN(c3ccc(F)cc3)CC2)n1 [compound 273] | 94 | 151 | Dead
CCCCCCCCCCNc1nsc(N2CCN(c3ncccn3)CC2)n1 [compound 274] | 116 | 187 | Dead
CCCCCCCCCCNc1nsc(N2CCN(c3c(C)cccc3C)CC2)n1 [compound 275] | 105 | 169 | Dead
CCCCCCCCCCNc1nsc(N(CC)C2CCCCC2)n1 [compound 276] | 116 | 187 | Dead
CCCCCCCCCCNc1nsc(N(CC(CC)CCCC)CC(CC)CCCC)n1 (centres unmarked) [compound 278] | 109 | 175 | Dead

same assay, conditions: Initial HTS run

Compound | Initial HTS Run % Run [%] | Initial HTS Run Visual Score | Initial HTS Run mOD [mOD]
COc1ccc(CNc2nsc(N3CCN(c4ccc(F)cc4)CC3)n2)cc1 [compound 271] | 101 | L4/AD/B | 111
C=CCN(CC=C)c1nc(NCC(c2ccccc2)c2ccccc2)ns1 [compound 272] | 108 | L3 | 119
CCCCCCCCCCNc1nsc(N2CCN(c3ccc(F)cc3)CC2)n1 [compound 273] | 101 | – | 111
CCCCCCCCCCNc1nsc(N2CCN(c3ncccn3)CC2)n1 [compound 274] | 111 | Dead | 122
CCCCCCCCCCNc1nsc(N2CCN(c3c(C)cccc3C)CC2)n1 [compound 275] | 95 | Dead | 105
CCCCCCCCCCNc1nsc(N(CC)C2CCCCC2)n1 [compound 276] | 116 | Dead | 128
CCCCCCCCCCNc1nsc(N(CC(CC)CCCC)CC(CC)CCCC)n1 (centres unmarked) [compound 278] | 112 | Dead | 123

same assay, conditions: dose response, dilution V1, day 5

Compound | 5 Day Visual Score V1
COc1ccc(CNc2nsc(N3CCN(c4ccc(F)cc4)CC3)n2)cc1 [compound 271] | Dead
C=CCN(CC=C)c1nc(NCC(c2ccccc2)c2ccccc2)ns1 [compound 272] | Dead
CCCCCCCCCCNc1nsc(N2CCN(c3ccc(F)cc3)CC2)n1 [compound 273] | Dead
CCCCCCCCCCNc1nsc(N2CCN(c3ncccn3)CC2)n1 [compound 274] | Dead
CCCCCCCCCCNc1nsc(N2CCN(c3c(C)cccc3C)CC2)n1 [compound 275] | Dead
CCCCCCCCCCNc1nsc(N(CC)C2CCCCC2)n1 [compound 276] | Dead
CCCCCCCCCCNc1nsc(N(CC(CC)CCCC)CC(CC)CCCC)n1 (centres unmarked) [compound 278] | Dead

same assay, conditions: dose response, dilution V2, day 5

Compound | 5 Day Visual Score V2
C=CCN(CC=C)c1nc(NCC(c2ccccc2)c2ccccc2)ns1 [compound 272] | B (low broodsize (25-100 progeny))
CCCCCCCCCCNc1nsc(N2CCN(c3ccc(F)cc3)CC2)n1 [compound 273] | Dead
CCCCCCCCCCNc1nsc(N2CCN(c3ncccn3)CC2)n1 [compound 274] | Dead
CCCCCCCCCCNc1nsc(N2CCN(c3c(C)cccc3C)CC2)n1 [compound 275] | Dead
CCCCCCCCCCNc1nsc(N(CC)C2CCCCC2)n1 [compound 276] | Dead
CCCCCCCCCCNc1nsc(N(CC(CC)CCCC)CC(CC)CCCC)n1 (centres unmarked) [compound 278] | Dead

same assay, conditions: dose response, dilution V3, day 5

Compound | 5 Day Visual Score V3
C=CCN(CC=C)c1nc(NCC(c2ccccc2)c2ccccc2)ns1 [compound 272] | OK (no effect (˜1000+ progeny))
CCCCCCCCCCNc1nsc(N2CCN(c3ccc(F)cc3)CC2)n1 [compound 273] | B (low broodsize (25-100 progeny))
CCCCCCCCCCNc1nsc(N2CCN(c3c(C)cccc3C)CC2)n1 [compound 275] | OK (no effect (˜1000+ progeny))
CCCCCCCCCCNc1nsc(N(CC(CC)CCCC)CC(CC)CCCC)n1 (centres unmarked) [compound 278] | ˜B (moderate broodsize (100-250 progeny))

same assay, conditions: dose response, dilution V4, day 5

Compound | 5 Day Visual Score V4
COc1ccc(CNc2nsc(N3CCN(c4ccc(F)cc4)CC3)n2)cc1 [compound 271] | < (reduced broodsize (250-500 progeny))
C=CCN(CC=C)c1nc(NCC(c2ccccc2)c2ccccc2)ns1 [compound 272] | OK (no effect (˜1000+ progeny))
CCCCCCCCCCNc1nsc(N2CCN(c3ccc(F)cc3)CC2)n1 [compound 273] | ˜B (moderate broodsize (100-250 progeny))
CCCCCCCCCCNc1nsc(N2CCN(c3ncccn3)CC2)n1 [compound 274] | B (low broodsize (25-100 progeny))
CCCCCCCCCCNc1nsc(N2CCN(c3c(C)cccc3C)CC2)n1 [compound 275] | OK (no effect (˜1000+ progeny))
CCCCCCCCCCNc1nsc(N(CC)C2CCCCC2)n1 [compound 276] | OK (no effect (˜1000+ progeny))
CCCCCCCCCCNc1nsc(N(CC(CC)CCCC)CC(CC)CCCC)n1 (centres unmarked) [compound 278] | OK (no effect (˜1000+ progeny))

same assay, conditions: dose response, dilution V5, day 5

Compound | 5 Day Visual Score V5
COc1ccc(CNc2nsc(N3CCN(c4ccc(F)cc4)CC3)n2)cc1 [compound 271] | OK (no effect (˜1000+ progeny))
C=CCN(CC=C)c1nc(NCC(c2ccccc2)c2ccccc2)ns1 [compound 272] | OK (no effect (˜1000+ progeny))
CCCCCCCCCCNc1nsc(N2CCN(c3ccc(F)cc3)CC2)n1 [compound 273] | OK (no effect (˜1000+ progeny))
CCCCCCCCCCNc1nsc(N2CCN(c3ncccn3)CC2)n1 [compound 274] | OK (no effect (˜1000+ progeny))
CCCCCCCCCCNc1nsc(N2CCN(c3c(C)cccc3C)CC2)n1 [compound 275] | OK (no effect (˜1000+ progeny))
CCCCCCCCCCNc1nsc(N(CC)C2CCCCC2)n1 [compound 276] | OK (no effect (˜1000+ progeny))
CCCCCCCCCCNc1nsc(N(CC(CC)CCCC)CC(CC)CCCC)n1 (centres unmarked) [compound 278] | OK (no effect (˜1000+ progeny))

same assay, conditions: dose response, dilution V6, day 5

Compound | 5 Day Visual Score V6
COc1ccc(CNc2nsc(N3CCN(c4ccc(F)cc4)CC3)n2)cc1 [compound 271] | < (reduced broodsize (250-500 progeny))
C=CCN(CC=C)c1nc(NCC(c2ccccc2)c2ccccc2)ns1 [compound 272] | OK (no effect (˜1000+ progeny))
CCCCCCCCCCNc1nsc(N2CCN(c3ccc(F)cc3)CC2)n1 [compound 273] | OK (no effect (˜1000+ progeny))
CCCCCCCCCCNc1nsc(N2CCN(c3ncccn3)CC2)n1 [compound 274] | OK (no effect (˜1000+ progeny))
CCCCCCCCCCNc1nsc(N2CCN(c3c(C)cccc3C)CC2)n1 [compound 275] | OK (no effect (˜1000+ progeny))
CCCCCCCCCCNc1nsc(N(CC)C2CCCCC2)n1 [compound 276] | OK (no effect (˜1000+ progeny))
CCCCCCCCCCNc1nsc(N(CC(CC)CCCC)CC(CC)CCCC)n1 (centres unmarked) [compound 278] | OK (no effect (˜1000+ progeny))
